Patent publication US11753407B2, “Compounds for treating spinal muscular atrophy” (PTC Therapeutics, Inc., priority 2012, dated 2023)

Assays:
[1] = tested on: SMN2 minigene mRNA (SMN2-A minigene) in HEK293H cells; assay: SMN2 minigene mRNA splicing RT-qPCR assay in cultured cells; format: cell-based, human; settings: Homo sapiens, HEK293-H; concentration increasing full length SMN2 mRNA 1.5-fold relative to vehicle-treated cells; HEK293H cells with SMN2-A minigene, 24 hours, 7-point concentration data; read-out: EC1.5x for production of full length SMN2 mRNA
Procedure, shortened: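 Cells are seeded, left to attach 4-6 h, then dosed with test compound across seven concentrations and incubated 24 h. Lysates undergo RT-qPCR with primers/probe specific to the exon 7-containing minigene transcript, co-amplified with GAPDH. Fold change over vehicle is calculated, and EC1.5× marks the 1.5-fold point.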

[2] = tested on: Smn protein in SMA patient fibroblast cells (GM03813); assay: Smn protein assay in cultured cells (SMN HTRF); format: cell-based, human; settings: SMA patient fibroblast cells, 48 hours; for EC1.5x for Smn protein expression: 7-point concentration curve, SMN HTRF, concentration producing 1.5 times Smn protein vs DMSO vehicle control; for maximum fold (Fold) increase of Smn protein: 7-point concentration data, fold relative to vehicle control
Procedure, shortened: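 Patient-derived SMA fibroblasts are plated, given compound for 48 h, then lysed in RIPA buffer with protease inhibitors. Lysate Smn is detected by an anti-SMN d2/kryptate HTRF pair incubated overnight. The normalized ΔF is divided by the vehicle ΔF to give fold change, from which EC1.5× and maximum fold are taken.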

Row | Structure (SMILES) | EC (1.5-fold increase) [1] [µM] | EC1.5x for Smn protein expression [2] | maximum fold (Fold) increase of Smn protein [2] | melting point [°C]
1 | Cc1cc(C2CCNCC2)cn2c(=O)cc(-c3ccc4nn(C)cc4c3)nc12 [Compound 721, 9-methyl-2-(2-methyl-2H-indazol-5-yl)-7-(piperidin-4-yl)-4H-pyrido[1,2-a]pyrimidin-4-one] | < 0.1 | **** (an EC1.5x≤0.3 μM is indicated by four stars (****)) | ***** (a fold increase >1.65 is indicated by five stars (*****)) | 211
2 | Cc1cn2nc(-c3cc(=O)n4cc(OC5CCN(C)CC5)ccc4n3)cc2c(C)n1 [Compound 722, 2-(4,6-dimethylpyrazolo[1,5-a]pyrazin-2-yl)-7-[(1-methylpiperidin-4-yl)oxy]-4H-pyrido[1,2-a]pyrimidin-4-one] | < 0.1 | **** (an EC1.5x≤0.3 μM is indicated by four stars (****)) | ***** (a fold increase >1.65 is indicated by five stars (*****)) | 249 to 252
3 | CCCc1nc(C)cn2nc(-c3cc(=O)n4cc(N5CCNCC5)ccc4n3)cc12 [Compound 723, 2-(6-methyl-4-propylpyrazolo[1,5-a]pyrazin-2-yl)-7-(piperazin-1-yl)-4H-pyrido[1,2-a]pyrimidin-4-one] | < 0.1 | **** (an EC1.5x≤0.3 μM is indicated by four stars (****)) | ***** (a fold increase >1.65 is indicated by five stars (*****)) | 250 to 252
4 | CCCc1nc(C)cn2nc(-c3cc(=O)n4cc(N5CCN(C)CC5)ccc4n3)cc12 [Compound 724, 7-(4-methylpiperazin-1-yl)-2-(6-methyl-4-propylpyrazolo[1,5-a]pyrazin-2-yl)-4H-pyrido[1,2-a]pyrimidin-4-one] | 0.3 to 1 | *** (an EC1.5× between >0.3 μM and ≤1 μM is indicated by three stars (***)) | ***** (a fold increase >1.65 is indicated by five stars (*****)) | 246 to 248
5 | CCCc1nc(C)cn2nc(-c3cc(=O)n4cc(N5CCN(CC)CC5)ccc4n3)cc12 [Compound 725, 7-(4-ethylpiperazin-1-yl)-2-(6-methyl-4-propylpyrazolo[1,5-a]pyrazin-2-yl)-4H-pyrido[1,2-a]pyrimidin-4-one] | 0.1 to 0.3 | *** (an EC1.5× between >0.3 μM and ≤1 μM is indicated by three stars (***)) | ***** (a fold increase >1.65 is indicated by five stars (*****)) | 231 to 233
6 | CCCc1nc(C)cn2nc(-c3cc(=O)n4cc(N5CCN(CCO)CC5)ccc4n3)cc12 [Compound 726, 7-[4-(2-hydroxyethyl)piperazin-1-yl]-2-(6-methyl-4-propylpyrazolo[1,5-a]pyrazin-2-yl)-4H-pyrido[1,2-a]pyrimidin-4-one] | 0.3 to 1 | ** (an EC1.5× between >1 μM and ≤3 μM is indicated by two stars (**)) | **** (a fold increase between >1.5 and ≤1.65 is indicated by four stars (****)) | 225 to 227
7 | CCCc1nc(C)cn2nc(-c3cc(=O)n4cc(N5CCN[C@H](C)C5)ccc4n3)cc12 [Compound 727, 7-[(3R)-3-methylpiperazin-1-yl]-2-(6-methyl-4-propylpyrazolo[1,5-a]pyrazin-2-yl)-4H-pyrido[1,2-a]pyrimidin-4-one] | < 0.1 | **** (an EC1.5x≤0.3 μM is indicated by four stars (****)) | ***** (a fold increase >1.65 is indicated by five stars (*****)) | 195 to 197
8 | CCCc1nc(C)cn2nc(-c3cc(=O)n4cc(N5CCN[C@@H](C)C5)ccc4n3)cc12 [Compound 728, 7-[(3S)-3-methylpiperazin-1-yl]-2-(6-methyl-4-propylpyrazolo[1,5-a]pyrazin-2-yl)-4H-pyrido[1,2-a]pyrimidin-4-one] | 0.1 to 0.3 | **** (an EC1.5x≤0.3 μM is indicated by four stars (****)) | ***** (a fold increase >1.65 is indicated by five stars (*****)) | 195 to 197
9 | CCCc1nc(C)cn2nc(-c3cc(=O)n4cc(N5C[C@@H](C)N[C@@H](C)C5)ccc4n3)cc12 [Compound 729, 7-[(3R,5S)-3,5-dimethylpiperazin-1-yl]-2-(6-methyl-4-propylpyrazolo[1,5-a]pyrazin-2-yl)-4H-pyrido[1,2-a]pyrimidin-4-one] | 0.1 to 0.3 | *** (an EC1.5× between >0.3 μM and ≤1 μM is indicated by three stars (***)) | ***** (a fold increase >1.65 is indicated by five stars (*****)) | 249 to 251
10 | Cc1cn2cc(-c3cc(=O)n4cc(N5CCN(C(C)C)[C@H](C)C5)ccc4n3)cc2c(C)n1 [Compound 730, 2-(1,3-dimethylpyrrolo[1,2-a]pyrazin-7-yl)-7-[(3R)-3-methyl-4-(propan-2-yl)piperazin-1-yl]-4H-pyrido[1,2-a]pyrimidin-4-one] | < 0.1 | **** (an EC1.5x≤0.3 μM is indicated by four stars (****)) | ***** (a fold increase >1.65 is indicated by five stars (*****)) | 249 to 251
11 | Cc1cn2cc(-c3cc(=O)n4cc(N5CCC(C)(N)CC5)ccc4n3)cc2c(C)n1 [Compound 731, 7-(4-amino-4-methylpiperidin-1-yl)-2-(1,3-dimethylpyrrolo[1,2-a]pyrazin-7-yl)-4H-pyrido[1,2-a]pyrimidin-4-one] | < 0.1 | **** (an EC1.5x≤0.3 μM is indicated by four stars (****)) | ***** (a fold increase >1.65 is indicated by five stars (*****)) | 244 to 246
12 | CC[C@H]1CN(c2cc(C)c3nc(-c4cc5c(C)nc(C)cn5n4)cc(=O)n3c2)CCN1 [Compound 732, 2-(4,6-dimethylpyrazolo[1,5-a]pyrazin-2-yl)-7-[(3S)-3-ethylpiperazin-1-yl]-9-methyl-4H-pyrido[1,2-a]pyrimidin-4-one] | 0.3 to 1 | *** (an EC1.5× between >0.3 μM and ≤1 μM is indicated by three stars (***)) | **** (a fold increase between >1.5 and ≤1.65 is indicated by four stars (****)) | 243 to 251
13 | Cc1cn2cc(-c3cc(=O)n4cc(N5CCNCC5)ccc4n3)cc(C(F)(F)F)c2n1 [Compound 733, 2-[2-methyl-8-(trifluoromethyl)imidazo[1,2-a]pyridin-6-yl]-7-(piperazin-1-yl)-4H-pyrido[1,2-a]pyrimidin-4-one] | < 0.1 | **** (an EC1.5x≤0.3 μM is indicated by four stars (****)) | ***** (a fold increase >1.65 is indicated by five stars (*****)) | 325 to 328
14 | Cc1cn2cc(-c3cc(=O)n4cc(N5CCN[C@H](C)C5)ccc4n3)cc(C(F)(F)F)c2n1 [Compound 734, 7-[(3R)-3-methylpiperazin-1-yl]-2-[2-methyl-8-(trifluoromethyl)imidazo[1,2-a]pyridin-6-yl]-4H-pyrido[1,2-a]pyrimidin-4-one] | < 0.1 | **** (an EC1.5x≤0.3 μM is indicated by four stars (****)) | ***** (a fold increase >1.65 is indicated by five stars (*****)) | 303 to 306
15 | Cc1cn2cc(-c3cc(=O)n4cc(N5CCN[C@@H](C)C5)ccc4n3)cc(C(F)(F)F)c2n1 [Compound 735, 7-[(3S)-3-methylpiperazin-1-yl]-2-[2-methyl-8-(trifluoromethyl)imidazo[1,2-a]pyridin-6-yl]-4H-pyrido[1,2-a]pyrimidin-4-one] | < 0.1 | **** (an EC1.5x≤0.3 μM is indicated by four stars (****)) | **** (a fold increase between >1.5 and ≤1.65 is indicated by four stars (****)) | > 320
16 | Cc1cn2cc(-c3cc(=O)n4cc(N5C[C@@H](C)N[C@@H](C)C5)ccc4n3)cc(C(F)(F)F)c2n1 [Compound 736, 7-[(3R,5S)-3,5-dimethylpiperazin-1-yl]-2-[2-methyl-8-(trifluoromethyl)imidazo[1,2-a]pyridin-6-yl]-4H-pyrido[1,2-a]pyrimidin-4-one] | < 0.1 | **** (an EC1.5x≤0.3 μM is indicated by four stars (****)) | ***** (a fold increase >1.65 is indicated by five stars (*****)) | 293 to 296
17 | CCc1nc(C)cn2nc(-c3cc(=O)n4cc(N5CCC(C)(N)CC5)ccc4n3)cc12 [Compound 737, 7-(4-amino-4-methylpiperidin-1-yl)-2-(4-ethyl-6-methylpyrazolo[1,5-a]pyrazin-2-yl)-4H-pyrido[1,2-a]pyrimidin-4-one] | < 0.1 | **** (an EC1.5x≤0.3 μM is indicated by four stars (****)) | ***** (a fold increase >1.65 is indicated by five stars (*****)) | 216 to 218
